Measurements as given in patent US20230135729A1, “COMPOUND WITH ANTI-SPORE ACTIVITY AND PHARMACEUTICAL COMPOSITION THEREOF” (priority 2020, published 2023).
In brackets after ≈: the same amount, converted by molar mass. Where two headings read alike, the source gives them in different places.

What was measured:
Type in all cases: cell-based
[1] = test system: spores of ATCC BBA1870 strain; experiment: Inhibition of germination of C. difficile spores (MIC), strain ATCC BBA1870; conditions: Clostridioides difficile, ATCCBBA1870STRAIN, 1 h, read-out: MIC (minimum concentration that completely inhibits spore germination)
Method in brief: (§1)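 Germination was followed as the drop in OD580 over 60 min at 37° C in BHIS after adding sodium taurocholate to spores premixed with compound. Spores were first heat-activated (65° C, 30 min) and washed free of self-germinating spores. The inhibition rate was calculated against germinant and non-germinant controls.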

[2] = test system: spores of ATCC 43255 strain; experiment: Inhibition of germination of C. difficile spores (MIC), strain ATCC 43255; conditions: Clostridioides difficile, ATCC43255, 1 h, read-out: MIC (minimum concentration that completely inhibits spore germination)
Method in brief: as §1

[3] = test system: spores of ATCC 630 strain; experiment: Inhibition of germination of C. difficile spores (MIC), strain ATCC 630; conditions: Clostridioides difficile, ATCC630, 1 h, read-out: MIC (minimum concentration that completely inhibits spore germination)
Method in brief: as §1

[4] = strain 1870, sodium taurocholate as germinant, BHIS medium, 37° C., OD580 for 60 min
[5] = strain 43255, sodium taurocholate as germinant, BHIS medium, 37° C., OD580 for 60 min
[6] = strain 630, sodium taurocholate as germinant, BHIS medium, 37° C., OD580 for 60 min

| SMILES | MIC [1, 4] [µM] | MIC [2, 5] [µM] | MIC [3, 6] [µM] | MIC [1] [µM] | MIC [2] [µM] | MIC [3] [µM] |
| --- | --- | --- | --- | --- | --- | --- |
| CC[C@H](NC(=O)C[C@@H](C)[C@H]1CC[C@H]2[C@@H]3C(=O)C[C@@H]4CC(=O)CC[C@]4(C)[C@H]3CC[C@]12C)c1ccc(Br)s1 [Compound I-71] | 32 (≈ 18.5 µg/mL) | 16 (≈ 9.23 µg/mL) | 16 (≈ 9.23 µg/mL) |  |  |  |
| CC[C@@H](NC(=O)C[C@@H](C)[C@H]1CC[C@H]2[C@@H]3[C@H](OC(C)=O)C[C@@H]4CC(=O)CC[C@]4(C)[C@H]3CC[C@]12C)c1ccc(Br)s1 [Compound I-176] | 0.5 (≈ 0.31 µg/mL) | 0.5 (≈ 0.31 µg/mL) | 0.5 (≈ 0.31 µg/mL) |  |  |  |
| CC[C@@H](NC(=O)C[C@@H](C)[C@H]1CC[C@H]2[C@@H]3CC[C@@H]4C[C@H](O)CC[C@]4(C)[C@H]3CC[C@]12C)c1ccc(Br)s1 [Compound I-147] | 32 (≈ 18.1 µg/mL) | 16 (≈ 9.03 µg/mL) | 16 (≈ 9.03 µg/mL) |  |  |  |
| CC(C)[C@@H](NC(=O)C[C@@H](C)[C@H]1CC[C@H]2[C@@H]3[C@H](OC(=O)CCC(=O)O)C[C@@H]4CC(=O)CC[C@]4(C)[C@H]3CC[C@]12C)c1ccc(Br)s1 [Compound I-182] | 2 (≈ 1.39 µg/mL) | 2 (≈ 1.39 µg/mL) | 2 (≈ 1.39 µg/mL) |  |  |  |
| CC(C)[C@@H](NC(=O)C[C@@H](C)[C@H]1CC[C@H]2[C@@H]3[C@H](O)C[C@@H]4CC(=O)CC[C@]4(C)[C@H]3CC[C@]12C)c1ccc(Cl)s1 [Compound I-97] | 0.125 (≈ 0.0685 µg/mL) | 0.125 (≈ 0.0685 µg/mL) | 0.125 (≈ 0.0685 µg/mL) |  |  |  |
| CC[C@@H](NC(=O)C[C@@H](C)[C@H]1CC[C@H]2[C@@H]3[C@H](O)[C@H](O)[C@@H]4C[C@H](O)CC[C@]4(C)[C@H]3CC[C@]12C)c1ccc(Cl)s1 [Compound I-117] | 8 (≈ 4.42 µg/mL) | 8 (≈ 4.42 µg/mL) | 4 (≈ 2.21 µg/mL) |  |  |  |
| CC[C@@H](NC(=O)C[C@@H](C)[C@H]1CC[C@H]2[C@@H]3[C@H](OC(=O)CCC(=O)O)C[C@@H]4CC(=O)CC[C@]4(C)[C@H]3CC[C@]12C)c1ccc(Cl)s1 [Compound I-179] | 2 (≈ 1.27 µg/mL) | 2 (≈ 1.27 µg/mL) | 2 (≈ 1.27 µg/mL) |  |  |  |
| CC(C)[C@@H](NC(=O)C[C@@H](C)[C@H]1CC[C@H]2[C@@H]3C(=O)C[C@@H]4CC(=O)CC[C@]4(C)[C@H]3CC[C@]12C)c1ccc(S(=O)(=O)O)s1 [Compound I-83] | 16 (≈ 9.47 µg/mL) | 16 (≈ 9.47 µg/mL) | 16 (≈ 9.47 µg/mL) |  |  |  |
| CC[C@H](NC(=O)C[C@@H](C)[C@H]1CC[C@H]2[C@@H]3C(=O)C[C@@H]4CC(=O)CC[C@]4(C)[C@H]3CC[C@]12C)c1ccccc1 [Compound I-59] |  |  |  | 128 (≈ 62.9 µg/mL) | 64 (≈ 31.5 µg/mL) | 64 (≈ 31.5 µg/mL) |
| CC[C@@H](NC(=O)C[C@@H](C)[C@H]1CC[C@H]2[C@@H]3[C@H](O)C[C@@H]4CC(=O)CC[C@]4(C)[C@H]3CC[C@]12C)c1ccc(Cl)s1 [Compound I-88] | 0.25 (≈ 0.134 µg/mL) | 0.25 (≈ 0.134 µg/mL) | 0.125 (≈ 0.0668 µg/mL) |  |  |  |
| CC(C)C(NC(=O)C[C@@H](C)[C@H]1CC[C@H]2[C@@H]3C[C@H](O)[C@@H]4CC(=O)CC[C@]4(C)[C@H]3CC[C@]12C)c1ccc(Br)s1 (stereo partly drawn) [Compound I-130] | 4 (≈ 2.37 µg/mL) | 4 (≈ 2.37 µg/mL) | 4 (≈ 2.37 µg/mL) |  |  |  |
| CC(C)[C@@H](NC(=O)C[C@@H](C)[C@H]1CC[C@H]2[C@@H]3[C@@H](O)C[C@@H]4C[C@H](O)CC[C@]4(C)[C@H]3CC[C@]12C)c1ccc(Br)s1 [Compound I-142] | 32 (≈ 19 µg/mL) | 32 (≈ 19 µg/mL) | 32 (≈ 19 µg/mL) |  |  |  |
| CC(NC(=O)C[C@@H](C)[C@H]1CC[C@H]2[C@@H]3C(=O)C[C@@H]4CC(=O)CC[C@]4(C)[C@H]3CC[C@]12C)c1ccc(Br)s1 (stereo partly drawn) [Compound I-33] | 0.5 (≈ 0.281 µg/mL) | 1 (≈ 0.563 µg/mL) | 0.5 (≈ 0.281 µg/mL) |  |  |  |
| Cc1ccsc1C(C)NC(=O)C[C@@H](C)[C@H]1CC[C@H]2[C@@H]3C(=O)C[C@@H]4CC(=O)CC[C@]4(C)[C@H]3CC[C@]12C (stereo partly drawn) [Compound I-31] | 8 (≈ 3.98 µg/mL) | 8 (≈ 3.98 µg/mL) | 8 (≈ 3.98 µg/mL) |  |  |  |
| C[C@H](CC(=O)NCc1cccs1)[C@H]1CC[C@H]2[C@@H]3[C@H](O)[C@H](O)[C@@H]4C[C@H](O)CC[C@]4(C)[C@H]3CC[C@]12C [Compound I-21] | 8 (≈ 3.92 µg/mL) | 8 (≈ 3.92 µg/mL) | 4 (≈ 1.96 µg/mL) |  |  |  |
| CCC(NC(=O)C[C@@H](C)[C@H]1CC[C@H]2[C@@H]3C(=O)C[C@@H]4CC(=O)CC[C@]4(C)[C@H]3CC[C@]12C)c1ccc(Br)s1 (stereo partly drawn) [Compound I-38] | 2 (≈ 1.15 µg/mL) | 2 (≈ 1.15 µg/mL) | 1 (≈ 0.577 µg/mL) |  |  |  |

| SMILES | MIC [1, 4] [µM] | MIC [2, 5] [µM] | MIC [3, 6] [µM] | MIC [1] [µM] | MIC [2] [µM] | MIC [3] [µM] |
| --- | --- | --- | --- | --- | --- | --- |
| CC(NC(=O)C[C@@H](C)[C@H]1CC[C@H]2[C@@H]3C(=O)C[C@@H]4CC(=O)CC[C@]4(C)[C@H]3CC[C@]12C)c1ccc(S(=O)(=O)O)s1 (stereo partly drawn) [Compound I-34] | 64 (≈ 36.1 µg/mL) | 64 (≈ 36.1 µg/mL) | 64 (≈ 36.1 µg/mL) |  |  |  |
| CC(C)[C@H](NC(=O)C[C@@H](C)[C@H]1CC[C@H]2[C@@H]3[C@H](OS(=O)(=O)O)C[C@@H]4CC(=O)CC[C@]4(C)[C@H]3CC[C@]12C)c1ccc(Cl)s1 [Compound I-111] | > 256 | > 256 | > 256 |  |  |  |
| CC(C)[C@H](NC(=O)C[C@@H](C)[C@H]1CC[C@H]2[C@@H]3[C@H](O)C[C@@H]4CC(=O)CC[C@]4(C)[C@H]3CC[C@]12C)c1ccc(Cl)s1 [Compound I-96] | 4 (≈ 2.19 µg/mL) | 4 (≈ 2.19 µg/mL) | 4 (≈ 2.19 µg/mL) |  |  |  |
| C[C@H](CC(=O)NCc1cccnc1)[C@H]1CC[C@H]2[C@@H]3[C@H](O)C[C@@H]4C[C@H](O)CC[C@]4(C)[C@H]3CC[C@]12C [Compound I-5] | 16 (≈ 7.5 µg/mL) | 16 (≈ 7.5 µg/mL) | 32 (≈ 15 µg/mL) |  |  |  |
| CC[C@@H](NC(=O)C[C@@H](C)[C@H]1CC[C@H]2[C@@H]3[C@H](O)[C@H](O)[C@@H]4CC(=O)CC[C@]4(C)[C@H]3CC[C@]12C)c1ccc(Cl)s1 [Compound I-123] | 64 (≈ 35.2 µg/mL) | 64 (≈ 35.2 µg/mL) | 64 (≈ 35.2 µg/mL) |  |  |  |
| CC[C@@H](NC(=O)C[C@@H](C)[C@H]1CC[C@H]2[C@@H]3[C@H](OC(C)=O)C[C@@H]4CC(=O)CC[C@]4(C)[C@H]3CC[C@]12C)c1ccc(Cl)s1 [Compound I-175] | 1 (≈ 0.576 µg/mL) | 1 (≈ 0.576 µg/mL) | 0.5 (≈ 0.288 µg/mL) |  |  |  |
| CC[C@H](NC(=O)C[C@@H](C)[C@H]1CC[C@H]2[C@@H]3C[C@H](O)[C@@H]4CC(=O)CC[C@]4(C)[C@H]3CC[C@]12C)c1ccc(Cl)s1 [Compound I-129] | 4 (≈ 2.14 µg/mL) | 2 (≈ 1.07 µg/mL) | 2 (≈ 1.07 µg/mL) |  |  |  |
| CC[C@H](NC(=O)C[C@@H](C)[C@H]1CC[C@H]2[C@@H]3C(=O)C[C@@H]4CC(=O)CC[C@]4(C)[C@H]3CC[C@]12C)c1ccc(S(=O)(=O)O)s1 [Compound I-73] | > 256 | > 256 | > 256 |  |  |  |
| C[C@H](NC(=O)C[C@@H](C)[C@H]1CC[C@H]2[C@@H]3C(=O)C[C@@H]4CC(=O)CC[C@]4(C)[C@H]3CC[C@]12C)c1cccs1 [Compound I-28] | > 256 | > 256 | > 256 |  |  |  |
| CCCCCC(NC(=O)C[C@@H](C)[C@H]1CC[C@H]2[C@@H]3C(=O)C[C@@H]4CC(=O)CC[C@]4(C)[C@H]3CC[C@]12C)c1cccs1 (stereo partly drawn) [Compound I-44] | 256 (≈ 138 µg/mL) | > 256 | > 256 |  |  |  |
| C[C@H](CC(=O)NC(c1ccccc1)c1ccccc1)[C@H]1CC[C@H]2[C@@H]3C(=O)C[C@@H]4CC(=O)CC[C@]4(C)[C@H]3CC[C@]12C [Compound I-61] | 128 (≈ 69.1 µg/mL) | 128 (≈ 69.1 µg/mL) | 128 (≈ 69.1 µg/mL) |  |  |  |
| CC(C)[C@@H](NC(=O)C[C@@H](C)[C@H]1CC[C@H]2[C@@H]3[C@H](OS(=O)(=O)O)C[C@@H]4CC(=O)CC[C@]4(C)[C@H]3CC[C@]12C)c1ccc(Br)s1 [Compound I-115] | 0.5 (≈ 0.336 µg/mL) | 0.25 (≈ 0.168 µg/mL) | 0.5 (≈ 0.336 µg/mL) |  |  |  |
| CC[C@@H](NC(=O)C[C@@H](C)[C@H]1CC[C@H]2[C@@H]3[C@H](O)CC4=CC(=O)CC[C@]4(C)[C@H]3CC[C@]12C)c1ccc(Cl)s1 [Compound I-157-2] | 0.25 (≈ 0.133 µg/mL) | 0.5 (≈ 0.266 µg/mL) | 0.25 (≈ 0.133 µg/mL) |  |  |  |
| C[C@H](CC(=O)NC(c1ccccc1)c1cccs1)[C@H]1CC[C@H]2[C@@H]3C(=O)C[C@@H]4CC(=O)CC[C@]4(C)[C@H]3CC[C@]12C (stereo partly drawn) [Compound I-55] | 64 (≈ 34.9 µg/mL) | 32 (≈ 17.5 µg/mL) | 32 (≈ 17.5 µg/mL) |  |  |  |
| CC(C)[C@@H](NC(=O)C[C@@H](C)[C@H]1CC[C@H]2[C@@H]3C(=O)C[C@@H]4C[C@H](O)CC[C@]4(C)[C@H]3CC[C@]12C)c1ccc(Cl)s1 [Compound I-150] | 2 (≈ 1.1 µg/mL) | 2 (≈ 1.1 µg/mL) | 1 (≈ 0.548 µg/mL) |  |  |  |
| CC[C@@H](NC(=O)C[C@@H](C)[C@H]1CC[C@H]2[C@@H]3C(=O)C[C@@H]4CC(=O)CC[C@]4(C)[C@H]3CC[C@]12C)c1ccc(Br)s1 [Compound I-72] | 1 (≈ 0.577 µg/mL) | 1 (≈ 0.577 µg/mL) | 0.5 (≈ 0.288 µg/mL) |  |  |  |
